One may read the EC50 as the midpoint of the concentration-response curve. Read a high EC50 as a less potent agent.

The source of these data is patent EP2260303B1, “BIOMARKER FOR THE DIAGNOSIS OF A BRAIN TUMOR” (Meyer, Helmut E., priority 2008, dated 2009).

Assay [1] concerns Glioblastomzelllinie A172. The assay can be described thus: Chemosensitivity (dose-response curves, EC50) of A172 cell lines with modified biomarker expression. The assay is classed as cell-based. To be noted: Homo sapiens. From the text: (§1) Alle erfindungsgemäßen Biomarker (SEQ ID No. 1 - 24), die in den differentiellen Untersuchungen identifiziert wurden, sind potentiell in der Lage an der Vermittlung der Chemosensitivität dieser Gliome beteiligt zu sein. Durch den Einsatz ausgewählter Zytostatika mit unterschiedlichen Wirkmechanismen kann überprüft werden, ob die erfindungsgemäßen Biomarker (SEQ ID No. 1 - 24) direkt mit dem Reaktionsmechanismus der in der Therapie üblichen Zytostatika wechselwirken. Hierzu wurden stabile Zelllinien hergestellt und die erfindungsgemäßen Biomarker verstärkt exprimiert (Überexpression) und vermindert (knock-down) exprimiert (siehe J. Sambrook, E.F. Fritsch, T. Maniatis (1989), Molecular cloning: A laboratory manual, 2nd Edition, Cold Spring Habor Laboratory Press, Cold Spring Habor, USA oder Ausubel, "Current Protocols in Molecular Biology", Green Publishing Associates and Wiley Interscience, N.Y. (1989)). Eingesetzte Zytostatika: Carmustin und Vincristin, zwei Substanzen aus dem in der Therapie üblichen PCV Polychemotherapieschema, und Temozolomid, einem in der Therapie […] maligner Gliome neueren Wirkstoff. Zur Auswertung eines Effekts wurden Dosis-Wirkungs-Kurven und deren Lage zueinander und der korrespondierende EC50 Wert (Effektkonzentration; EC-50-Wert besagt, dass bei dieser Konzentration des Stoffes die Hälfte der Versuchsorganismen Wirkungen zeigt) berechnet.

Assay [2] deals with Glioblastomzelllinie T98G. Kind of assay: Chemosensitivity (dose-response curves, EC50) of T98G cell lines with modified biomarker expression. The assay is classed as cell-based. The conditions noted are these: Homo sapiens.
Description: as §1

The test system of assay [3] is stabilen Zelllinien aus A172 und T98G. Kind of assay: Comparison of the response of the stable A172 and T98G cell lines to cytostatics (summary in words). The format is cell-based, human. The conditions noted are these: versus control; for Verschiebung der Konzentrationen (Dosis-Wirkungs-Kurven): both cell lines.
Description: as §1
Eine veränderte Reaktion auf eine Behandlung mit Carmustin wurde in allen stabilen Zelllinien aus A172 sowie aus T98G beobachtet.
Einen ähnlichen Effekt zeigte die Behandlung der Zelllinien mit Vincristin. […] Dieses Verhalten wurde ebenfalls in den beiden Zelllinien beobachtet.

Regarding `O=NN(CCCl)C(=O)NCCCl` [Carmustin], the EC50 in assay [1] (A 172, A172 knock-down of ANXA1, treatment with Carmustin) is 95.6 µM; in assay [1] (A 172, A172 knock-down of CLIC1, treatment with Carmustin), 171 µM; in assay [1] (A 172, A172 knock-down of PRDX1, treatment with Carmustin), 107 µM; in assay [1] (A 172, A172 knock-down of VIL2, treatment with Carmustin) it was 90.8 µM; in assay [1] (A 172, A172 knock-down series, control cell line (Kontrolle), treatment with Carmustin), 94.4 µM; in assay [1] (A 172, A172 overexpressing ANXA1, treatment with Carmustin), 88.3 µM. For the same compound, the EC50 in assay [1] (A 172, A172 overexpressing CLIC1, treatment with Carmustin) was 105 µM; in assay [1] (A 172, A172 overexpressing PRDX1, treatment with Carmustin), 35.7 µM; in assay [1] (A 172, A172 overexpressing VIL2, treatment with Carmustin) it was 106 µM; in assay [1] (A 172, A172 overexpression series, control cell line (Kontrolle), treatment with Carmustin) it was 7.87 µM; in assay [2] (T98G knock-down of ANXA1, treatment with Carmustin) it was 121 µM; in assay [2] (T98G knock-down of CLIC1, treatment with Carmustin), 85.5 µM. Also, the EC50 in assay [2] (T98G knock-down of PRDX1, treatment with Carmustin) is 118 µM; in assay [2] (T98G knock-down of VIL2, treatment with Carmustin) it was 159 µM; in assay [2] (T98G knock-down series, control cell line (Kontrolle), treatment with Carmustin) it was 152 µM; in assay [2] (T98G overexpressing ANXA1, treatment with Carmustin), 207 µM; in assay [2] (T98G overexpressing CLIC1, treatment with Carmustin), 346 µM; in assay [2] (T98G overexpressing PRDX1, treatment with Carmustin), 158 µM. Besides, the half-maximal effective concentration (EC50) in assay [2] (T98G overexpressing VIL2, treatment with Carmustin) was determined as 223 µM; in assay [2] (T98G overexpression series, control cell line (Kontrolle), treatment with Carmustin), 64.8 µM.

As for `Cn1nnc2c(C(N)=O)ncn2c1=O` [Temozolomid], the EC50 was 113 µM in assay [1] (A 172, A172 knock-down of ANXA1, treatment with Temozolomid); 150 µM in assay [1] (A 172, A172 knock-down of CLIC1, treatment with Temozolomid); 118 µM in assay [1] (A 172, A172 knock-down of PRDX1, treatment with Temozolomid); 115 µM in assay [1] (A 172, A172 knock-down of VIL2, treatment with Temozolomid); 41 µM in assay [1] (A 172, A172 knock-down series, control cell line (Kontrolle), treatment with Temozolomid); 123 µM in assay [1] (A 172, A172 overexpressing ANXA1, treatment with Temozolomid). In addition, the EC50 came to 82.6 µM in assay [1] (A 172, A172 overexpressing CLIC1, treatment with Temozolomid); 26.4 µM in assay [1] (A 172, A172 overexpressing PRDX1, treatment with Temozolomid); 83.1 µM in assay [1] (A 172, A172 overexpressing VIL2, treatment with Temozolomid); 165 µM in assay [1] (A 172, A172 overexpression series, control cell line (Kontrolle), treatment with Temozolomid); 386 µM in assay [2] (T98G knock-down of ANXA1, treatment with Temozolomid); 335 µM in assay [2] (T98G knock-down of CLIC1, treatment with Temozolomid). The EC50 turned out to be 383 µM in assay [2] (T98G knock-down of PRDX1, treatment with Temozolomid); 348 µM in assay [2] (T98G knock-down of VIL2, treatment with Temozolomid); 327 µM in assay [2] (T98G knock-down series, control cell line (Kontrolle), treatment with Temozolomid); 409 µM in assay [2] (T98G overexpressing ANXA1, treatment with Temozolomid); 334 µM in assay [2] (T98G overexpressing CLIC1, treatment with Temozolomid); 321 µM in assay [2] (T98G overexpressing PRDX1, treatment with Temozolomid). Also, the EC50 in assay [2] (T98G overexpressing VIL2, treatment with Temozolomid) came to 396 µM; in assay [2] (T98G overexpression series, control cell line (Kontrolle), treatment with Temozolomid), 394 µM. The Sensitivität result in assay [3] (biomarkers overexpressed, stable cell lines from A172 and T98G) is reported as “erhöhte Sensitivität”; in assay [3] (knock-down cell lines from A172 and T98G) it was “umgekehrter Effekt”.

Regarding `CC[C@]1(O)C[C@H]2CN(CCc3c([nH]c4ccccc34)[C@@](C(=O)OC)(c3cc4c(cc3OC)N(C=O)[C@H]3[C@@](O)(C(=O)OC)[C@H](OC(C)=O)[C@]5(CC)C=CCN6CC[C@]43[C@@H]65)C2)C1` [Vincristin], the EC50 in assay [1] (A 172, A172 knock-down of ANXA1, treatment with Vincristin) was 0.037 µM; in assay [1] (A 172, A172 knock-down of CLIC1, treatment with Vincristin), 0.0642 µM; in assay [1] (A 172, A172 knock-down of PRDX1, treatment with Vincristin), 0.0527 µM; in assay [1] (A 172, A172 knock-down of VIL2, treatment with Vincristin) it was 0.0202 µM; in assay [1] (A 172, A172 knock-down series, control cell line (Kontrolle), treatment with Vincristin), 0.0322 µM; in assay [1] (A 172, A172 overexpressing ANXA1, treatment with Vincristin) it was 0.0153 µM. Also, the EC50 in assay [1] (A 172, A172 overexpressing CLIC1, treatment with Vincristin) was determined as 0.0193 µM; in assay [1] (A 172, A172 overexpressing PRDX1, treatment with Vincristin), 0.0127 µM; in assay [1] (A 172, A172 overexpressing VIL2, treatment with Vincristin) it was 0.0033 µM; in assay [1] (A 172, A172 overexpression series, control cell line (Kontrolle), treatment with Vincristin), 0.0152 µM; in assay [2] (T98G knock-down of ANXA1, treatment with Vincristin) it was 0.0191 µM; in assay [2] (T98G knock-down of CLIC1, treatment with Vincristin), 0.0269 µM. Besides, the concentration giving a half-maximal response (EC50) in assay [2] (T98G knock-down of PRDX1, treatment with Vincristin) came out at 0.0206 µM; in assay [2] (T98G knock-down of VIL2, treatment with Vincristin), 0.0358 µM; in assay [2] (T98G knock-down series, control cell line (Kontrolle), treatment with Vincristin), 0.01 µM; in assay [2] (T98G overexpressing ANXA1, treatment with Vincristin) it was 0.0042 µM; in assay [2] (T98G overexpressing CLIC1, treatment with Vincristin), 0.0037 µM; in assay [2] (T98G overexpressing PRDX1, treatment with Vincristin) it was 0.0096 µM. Besides, the EC50 in assay [2] (T98G overexpressing VIL2, treatment with Vincristin) was determined as 0.0241 µM; in assay [2] (T98G overexpression series, control cell line (Kontrolle), treatment with Vincristin), 0.0324 µM. The “Verschiebung der Konzentrationen (Dosis-Wirkungs-Kurven)” value in assay [3] (cell lines overexpressing the biomarkers) is “Verschiebung zu niedrigeren Konzentrationen”; in assay [3] (knock-down of the biomarkers) it was “höhere Konzentrationen notwendig”.
